Reference: the supplement of paper PMC11451515

System: NOMO1
Test: cell viability relative to DMSO control; higher = less cytotoxic
Settings: 48 h
Method in brief: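 NOMO1 or SEM cells were plated at 500 cells/well and P12-Ichikawa cells at 1000 cells/well in 1536-well plates (5 μl), after each leukemia line had been adapted for at least four passages in each medium. Pin dosing delivered library compounds in DMSO at 11 threefold concentrations, 47 μM to 0.79 nM. CellTiter-Glo One luminescence was read after 48 h at 37°C. Viability is reported as a per-plate percentage of DMSO wells, with cell-free wells as background.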

[1] = HPLM + 10% dialyzed FBS, 0.000781 µM
[2] = HPLM + 10% dialyzed FBS, 0.00234 µM
[3] = HPLM + 10% dialyzed FBS, 0.00702 µM
[4] = HPLM + 10% dialyzed FBS, 0.0211 µM
[5] = HPLM + 10% dialyzed FBS, 0.0632 µM
[6] = HPLM + 10% dialyzed FBS, 0.19 µM
[7] = HPLM + 10% dialyzed FBS, 0.569 µM
[8] = HPLM + 10% dialyzed FBS, 1.71 µM
[9] = HPLM + 10% dialyzed FBS, 5.12 µM
[10] = HPLM + 10% dialyzed FBS, 15.4 µM
[11] = HPLM + 10% dialyzed FBS, 46.1 µM
[12] = RPMI 5 mM glucose + 10% FBS, 0.000781 µM
[13] = RPMI 5 mM glucose + 10% FBS, 0.00234 µM
[14] = RPMI 5 mM glucose + 10% FBS, 0.00702 µM
[15] = RPMI 5 mM glucose + 10% FBS, 0.0211 µM
[16] = RPMI 5 mM glucose + 10% FBS, 0.0632 µM
[17] = RPMI 5 mM glucose + 10% FBS, 0.19 µM
[18] = RPMI 5 mM glucose + 10% FBS, 0.569 µM
[19] = RPMI 5 mM glucose + 10% FBS, 1.71 µM
[20] = RPMI 5 mM glucose + 10% FBS, 5.12 µM
[21] = RPMI 5 mM glucose + 10% FBS, 15.4 µM
[22] = RPMI 5 mM glucose + 10% FBS, 46.1 µM
[23] = RPMI 5 mM glucose + 10% dialyzed FBS, 0.000781 µM
[24] = RPMI 5 mM glucose + 10% dialyzed FBS, 0.00234 µM
[25] = RPMI 5 mM glucose + 10% dialyzed FBS, 0.00702 µM
[26] = RPMI 5 mM glucose + 10% dialyzed FBS, 0.0211 µM
[27] = RPMI 5 mM glucose + 10% dialyzed FBS, 0.0632 µM
[28] = RPMI 5 mM glucose + 10% dialyzed FBS, 0.19 µM
[29] = RPMI 5 mM glucose + 10% dialyzed FBS, 0.569 µM
[30] = RPMI 5 mM glucose + 10% dialyzed FBS, 1.71 µM
[31] = RPMI 5 mM glucose + 10% dialyzed FBS, 5.12 µM
[32] = RPMI 5 mM glucose + 10% dialyzed FBS, 15.4 µM
[33] = RPMI 5 mM glucose + 10% dialyzed FBS, 46.1 µM

N=C(N)NC(=N)N1CCOCC1
cell viability [1]: 102%
cell viability [2]: 84.7%
cell viability [3]: 106%
cell viability [4]: 103%
cell viability [5]: 106%
cell viability [6]: 111%
cell viability [7]: 111%
cell viability [8]: 103%
cell viability [9]: 103%
cell viability [10]: 89.6%
cell viability [11]: 87.1%
cell viability [12]: 95.2%
cell viability [13]: 93.1%
cell viability [14]: 115%
cell viability [15]: 101%
cell viability [16]: 111%
cell viability [17]: 106%
cell viability [18]: 102%
cell viability [19]: 97.1%
cell viability [20]: 98.7%
cell viability [21]: 84.4%
cell viability [22]: 87.4%
cell viability [23]: 96.4%
cell viability [24]: 93.3%
cell viability [25]: 89.8%
cell viability [26]: 88.8%
cell viability [27]: 106%
cell viability [28]: 104%
cell viability [29]: 101%
cell viability [30]: 87.2%
cell viability [31]: 87.9%
cell viability [32]: 86%
cell viability [33]: 89.7%

CC[C@@H]1C(=O)N(C)c2cnc(Nc3ccc(C(=O)NC4CCN(C)CC4)cc3OC)nc2N1C1CCCC1
cell viability [1]: 125%
cell viability [2]: 115%
cell viability [3]: 124%
cell viability [4]: 118%
cell viability [5]: 45.9%
cell viability [6]: 43.7%
cell viability [7]: 57.4%
cell viability [8]: 46.6%
cell viability [9]: 36.9%
cell viability [10]: 21.5%
cell viability [11]: 4.78%
cell viability [12]: 117%
cell viability [13]: 112%
cell viability [14]: 116%
cell viability [15]: 117%
cell viability [16]: 68.9%
cell viability [17]: 28.6%
cell viability [18]: 24.5%
cell viability [19]: 27.1%
cell viability [20]: 22.9%
cell viability [21]: 14.3%
cell viability [22]: 5.11%
cell viability [23]: 107%
cell viability [24]: 121%
cell viability [25]: 113%
cell viability [26]: 117%
cell viability [27]: 53.9%
cell viability [28]: 30%
cell viability [29]: 32.6%
cell viability [30]: 39%
cell viability [31]: 30.9%
cell viability [32]: 21.8%
cell viability [33]: 10.4%

N[C@@H](Cc1ccc(O)c(O)c1)C(=O)O
cell viability [1]: 121%
cell viability [2]: 133%
cell viability [3]: 117%
cell viability [4]: 118%
cell viability [5]: 144%
cell viability [6]: 131%
cell viability [7]: 122%
cell viability [8]: 136%
cell viability [9]: 131%
cell viability [10]: 116%
cell viability [11]: 55.3%

Cc1ccc(/C=N/NC(=O)c2ccccc2Oc2ccccc2)o1
cell viability [1]: 102%
cell viability [2]: 100%
cell viability [3]: 104%
cell viability [4]: 97.7%
cell viability [5]: 101%
cell viability [6]: 102%
cell viability [7]: 104%
cell viability [8]: 91.3%
cell viability [9]: 98%
cell viability [10]: 81.5%
cell viability [11]: 69.6%
cell viability [12]: 102%
cell viability [13]: 96.4%
cell viability [14]: 97.2%
cell viability [15]: 88.7%
cell viability [16]: 86.7%
cell viability [17]: 91.2%
cell viability [18]: 88%
cell viability [19]: 80.4%
cell viability [20]: 83.5%
cell viability [21]: 83.3%
cell viability [22]: 80.9%
cell viability [23]: 98.9%
cell viability [24]: 96.3%
cell viability [25]: 95.1%
cell viability [26]: 89.4%
cell viability [27]: 113%
cell viability [28]: 101%
cell viability [29]: 95.6%
cell viability [30]: 96.3%
cell viability [31]: 85.9%
cell viability [32]: 96.9%
cell viability [33]: 86.3%

O=C1N\C=N/C2=C1C=N[NH]2
cell viability [1]: 89.6%
cell viability [2]: 88.4%
cell viability [3]: 96.1%
cell viability [4]: 97%
cell viability [5]: 97.5%
cell viability [6]: 86.8%
cell viability [7]: 97.1%
cell viability [8]: 103%
cell viability [9]: 101%
cell viability [10]: 67.1%
cell viability [11]: 30%
cell viability [12]: 77.9%
cell viability [13]: 87.3%
cell viability [14]: 83%
cell viability [15]: 95.4%
cell viability [16]: 94.9%
cell viability [17]: 81.7%
cell viability [18]: 86.5%
cell viability [19]: 93%
cell viability [20]: 94.3%
cell viability [21]: 91.5%
cell viability [22]: 81%
cell viability [23]: 71.6%
cell viability [24]: 78.3%
cell viability [25]: 69.5%
cell viability [26]: 84.8%
cell viability [27]: 70.8%
cell viability [28]: 91.3%
cell viability [29]: 83.2%
cell viability [30]: 88.6%
cell viability [31]: 89.1%
cell viability [32]: 81.2%
cell viability [33]: 71.9%

COc1ccc2[nH]cc(CCNC(C)=O)c2c1
cell viability [1]: 115%
cell viability [2]: 115%
cell viability [3]: 125%
cell viability [4]: 131%
cell viability [5]: 114%
cell viability [6]: 129%
cell viability [7]: 118%
cell viability [8]: 119%
cell viability [9]: 131%
cell viability [10]: 112%
cell viability [11]: 114%

CC(C)n1cnc2c(NCCc3ccc(O)cc3)nc(-c3csc4ccccc34)nc21
cell viability [1]: 108%
cell viability [2]: 98%
cell viability [3]: 124%
cell viability [4]: 99.4%
cell viability [5]: 121%
cell viability [6]: 116%
cell viability [7]: 144%
cell viability [8]: 139%
cell viability [9]: 51.1%
cell viability [10]: 33.8%
cell viability [11]: 13.4%
cell viability [12]: 115%
cell viability [13]: 114%
cell viability [14]: 104%
cell viability [15]: 113%
cell viability [16]: 127%
cell viability [17]: 114%
cell viability [18]: 119%
cell viability [19]: 113%
cell viability [20]: 119%
cell viability [21]: 57.1%
cell viability [22]: 24.9%
cell viability [23]: 114%
cell viability [24]: 116%
cell viability [25]: 115%
cell viability [26]: 121%
cell viability [27]: 124%
cell viability [28]: 116%
cell viability [29]: 125%
cell viability [30]: 140%
cell viability [31]: 130%
cell viability [32]: 57.1%
cell viability [33]: 29.1%

Cc1cnc(Nc2ccc(N3CCN(C)CC3)cc2)nc1Nc1cccc([S+](=O)([O-])NC(C)(C)C)c1
cell viability [1]: 122%
cell viability [2]: 117%
cell viability [3]: 115%
cell viability [4]: 104%
cell viability [5]: 122%
cell viability [6]: 120%
cell viability [7]: 95.7%
cell viability [8]: 80.2%
cell viability [9]: 65.8%
cell viability [10]: 45.5%
cell viability [11]: 5.81%
cell viability [12]: 100%
cell viability [13]: 108%
cell viability [14]: 99.1%
cell viability [15]: 98.6%
cell viability [16]: 101%
cell viability [17]: 102%
cell viability [18]: 102%
cell viability [19]: 87.6%
cell viability [20]: 77.8%
cell viability [21]: 44.6%
cell viability [22]: 15.2%
cell viability [23]: 112%
cell viability [24]: 113%
cell viability [25]: 107%
cell viability [26]: 111%
cell viability [27]: 110%
cell viability [28]: 94.2%
cell viability [29]: 101%
cell viability [30]: 95.8%
cell viability [31]: 74.6%
cell viability [32]: 56.8%
cell viability [33]: 21.5%

CCOC(=O)O[C@]1(C(=O)OCCl)CC[C@H]2[C@@H]3CCC4=CC(=O)C=C[C@]4(C)[C@H]3[C@@H](O)C[C@@]21C
cell viability [1]: 101%
cell viability [2]: 95.9%
cell viability [3]: 103%
cell viability [4]: 105%
cell viability [5]: 103%
cell viability [6]: 108%
cell viability [7]: 110%
cell viability [8]: 99.3%
cell viability [9]: 95.3%
cell viability [10]: 84.3%
cell viability [11]: 82%
cell viability [12]: 98.4%
cell viability [13]: 88.2%
cell viability [14]: 96.2%
cell viability [15]: 84.2%
cell viability [16]: 82.2%
cell viability [17]: 94.6%
cell viability [18]: 85.7%
cell viability [19]: 87.5%
cell viability [20]: 87.1%
cell viability [21]: 89.3%
cell viability [22]: 95%
cell viability [23]: 88.1%
cell viability [24]: 95.1%
cell viability [25]: 93.2%
cell viability [26]: 87.4%
cell viability [27]: 91%
cell viability [28]: 100%
cell viability [29]: 88.6%
cell viability [30]: 98.2%
cell viability [31]: 75.8%
cell viability [32]: 80.2%
cell viability [33]: 93.4%
